The values below come from patent US10590128B2, “6,7,8,9-tetrahydro-5H-pyrido[2,3-d]azepine dopamine D3 ligands” (Pfizer Inc., priority 2016, dated 2020).

Molecules are shown by their SMILES. Where only a bound is given, the exact number is not on record here.

In assay [1] the target is human dopamine D2 receptor (hD2R) (Homo sapiens, UniProt P14416). Description: Human D2 receptor binding assay ([^3H]-Spiperone). Conditions: CHO cells expressing hD2R, geometric mean of 2-5 determinations unless marked b (single determination).
The target in assay [2] is human dopamine D3 receptor (hD3R) (Homo sapiens, UniProt P35462). Description: Human D3 receptor binding assay ([^3H]-7-OH-DPAT). Conditions: CHO cells expressing hD3R, geometric mean of 2-5 determinations unless marked b (single determination), read-out: hD3 in CHO cells Ki.
Chain of human dopamine D3 receptor (hD3R) (P35462 whole entry): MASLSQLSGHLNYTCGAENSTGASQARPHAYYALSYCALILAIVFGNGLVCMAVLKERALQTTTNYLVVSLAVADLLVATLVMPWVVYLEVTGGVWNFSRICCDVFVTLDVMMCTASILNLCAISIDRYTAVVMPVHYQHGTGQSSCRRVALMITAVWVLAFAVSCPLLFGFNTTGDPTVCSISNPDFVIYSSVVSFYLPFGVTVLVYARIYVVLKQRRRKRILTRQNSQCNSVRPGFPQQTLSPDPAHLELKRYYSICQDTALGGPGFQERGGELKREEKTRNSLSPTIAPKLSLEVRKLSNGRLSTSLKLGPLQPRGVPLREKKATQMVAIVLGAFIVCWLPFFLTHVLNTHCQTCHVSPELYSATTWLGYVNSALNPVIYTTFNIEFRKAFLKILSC

Chain of human dopamine D2 receptor (hD2R) (P14416 whole entry): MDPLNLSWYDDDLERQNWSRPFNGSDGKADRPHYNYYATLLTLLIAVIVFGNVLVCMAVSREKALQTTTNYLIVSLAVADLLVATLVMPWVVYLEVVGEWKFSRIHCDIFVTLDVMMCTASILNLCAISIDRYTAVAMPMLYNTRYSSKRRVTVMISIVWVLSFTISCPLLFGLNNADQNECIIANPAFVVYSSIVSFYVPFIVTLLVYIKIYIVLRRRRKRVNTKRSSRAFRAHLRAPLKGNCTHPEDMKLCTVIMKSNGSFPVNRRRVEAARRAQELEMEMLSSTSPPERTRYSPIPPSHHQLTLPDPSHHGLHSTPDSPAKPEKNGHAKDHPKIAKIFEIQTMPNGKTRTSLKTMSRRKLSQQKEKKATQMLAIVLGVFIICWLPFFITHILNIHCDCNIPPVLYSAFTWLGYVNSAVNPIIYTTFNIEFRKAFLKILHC

Take `CCN1CCc2cc(NS(=O)(=O)c3ccc(Cl)cc3)c(C)nc2CC1` [Example 138, 4-chloro-N-(7-ethyl-2-methyl-6,7,8,9-tetrahydro-5H-pyrido[2,3-d]azepin-3-yl)benzenesulfonamide]: the Ki (as a rule, the equilibrium dissociation constant of an inhibitor or competing ligand from its target) in assay [1] was above 4190 nM; in assay [2], 288 nM.
The corresponding values for `Cc1ccc(S(=O)(=O)Nc2cc3c(nc2C(F)(F)F)CCN(C)CC3)cc1` [Example 139, 4-methyl-N-[7-methyl-2-(trifluoromethyl)-6,7,8,9-tetrahydro-5H-pyrido[2,3-d]azepin-3-yl]benzenesulfonamide] are above 4280 nM and 713 nM.
As to `CCc1nc2c(cc1NS(=O)(=O)c1ccc([C@H]3CCCCO3)cc1)CCN(C)CC2` [Example 140, N-(2-ethyl-7-methyl-6,7,8,9-tetrahydro-5H-pyrido[2,3-d]azepin-3-yl)-4-[(2R)-tetrahydro-2H-pyran-2-yl]benzenesulfonamide], the Ki in assay [1] came out at 3300 nM; in assay [2], 27.5 nM.
